molecular target: T1, human full-length MKNK1 (Homo sapiens, UniProt Q9BUB5, T385D); test: MKNK1 kinase high ATP assay (TR-FRET); assay type: biochemical; settings: high ATP (2 mM), after preincubation with MKNK1; compounds of the present invention (Table 1a)
T1 construct: GST (N); purchased Carna Biosciences 02-145; host or cells: insect cells, baculovirus expression system
Protocol: MKNK1-inhibitory activity at high ATP of compounds of the present invention after their preincubation with MKNK1 was quantified employing the TR-FRET-based MKNK1 high ATP assay as described in the following paragraphs.
A recombinant fusion protein of Glutathione-S-Transferase (GST, N-terminally) and human full-length MKNK1 (amino acids 1-424 and T344D of accession number BAA 19885.1), expressed in insect cells using baculovirus expression system and purified via glutathione sepharose affinity chromatography, was purchased from Carna Biosciences (product no 02-145) and used as enzyme. As substrate for the kinase reaction the biotinylated peptide biotin-Ahx-IKKRKLTRRKSLKG (C-terminus in amide form) was used, which can be purchased e.g. from the company Biosyntan (Berlin-Buch, Germany).
For the assay 50 nL of a 100 fold concentrated solution of the test compound in DMSO was pipetted into a black low volume 384 well microtiter plate (Greiner Bio-One, Frickenhausen, Germany), 2 μL of a solution of MKNK1 in aqueous assay buffer [50 mM HEPES pH 7.5, 5 mM MgCl2, 1.0 mM dithiothreitol, 0.005% (v/v) Nonidet-P40 (Sigma)] was added and the mixture was incubated for 15 min at 22° C. to allow pre-binding of the test compounds to the enzyme before the start of the kinase reaction. Then the kinase reaction was started by the addition of 3 μL of a solution of adenosine-tri-phosphate (ATP, 3.3 mM=>final conc. in the 5 μL assay volume is 2 mM) and substrate (0.1 μM=>final conc. in the 5 μL assay volume is 0.06 μM) in assay buffer and the resulting mixture was incubated for a reaction time of 30 min at 22° C. The concentration of MKNK1 was adjusted depending of the activity of the enzyme lot and was chosen appropriate to have the assay in the linear range, typical concentrations were in the range of 0.003 μg/mL. The reaction was stopped by the addition of 5 μL of a solution of TR-FRET detection reagents (5 nM streptavidine-XL665 [Cisbio Bioassays, Codolet, France] and 1 nM anti-ribosomal protein […] (pSer236)-antibody from Invitrogen [#44921G] and 1 nM LANCE EU-W1024 labeled ProteinG [Perkin-Elmer, product no. AD0071]) in an aqueous EDTA-solution (100 mM EDTA, 0.1% (w/v) bovine serum albumin in 50 mM HEPES pH 7.5).
The resulting mixture was incubated for 1 h at 22° C. to allow the formation of complex between the phosphorylated biotinylated peptide and the detection reagents. Subsequently the amount of phosphorylated substrate was evaluated by measurement of the resonance energy transfer from the Eu-chelate to the streptavidine-XL. Therefore, the fluorescence emissions at 620 nm and 665 nm after excitation at 350 nm were measured in a TR-FRET reader, e.g. a Rubystar (BMG Labtechnologies, Offenburg, Germany) or a Viewlux (Perkin-Elmer). The ratio of the emissions at 665 nm and at […] was taken as the measure for the amount of phosphorylated substrate. The data were normalised (enzyme reaction without inhibitor=0% inhibition, all other assay components but no enzyme=100% inhibition). […] Table 1a lists MKNK1 high ATP IC50 values of some compounds of the present invention.

T1 sequence (Q9BUB5 1-424 isoform Q9BUB5-2 T344D): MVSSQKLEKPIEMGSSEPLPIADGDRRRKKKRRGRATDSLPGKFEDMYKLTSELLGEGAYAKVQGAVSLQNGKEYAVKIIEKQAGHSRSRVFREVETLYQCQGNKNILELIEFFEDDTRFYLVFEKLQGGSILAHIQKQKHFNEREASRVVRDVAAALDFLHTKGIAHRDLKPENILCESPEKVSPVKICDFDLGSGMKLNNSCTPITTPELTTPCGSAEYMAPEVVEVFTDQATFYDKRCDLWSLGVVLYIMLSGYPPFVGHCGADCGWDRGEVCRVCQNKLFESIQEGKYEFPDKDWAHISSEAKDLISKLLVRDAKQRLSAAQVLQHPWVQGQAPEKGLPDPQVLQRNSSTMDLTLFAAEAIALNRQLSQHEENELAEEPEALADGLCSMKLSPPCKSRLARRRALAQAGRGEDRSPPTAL

Compound | IC50
COCC1(OC)CCc2c(sc3ncnc(Nc4ccc5[nH]ncc5c4)c23)C1 (single isomer, unassigned) [Example 39, (7S) or (7R) N-(1H-Indazol-5-yl)-7-methoxy-7-(methoxymethyl)-5,6,7,8-tetrahydro[1]benzothieno[2,3-d]pyrimidin-4-amine] | 69.3 nM
COc1cc2[nH]ncc2cc1Nc1ncnc2sc3c(c12)CC[C@@](C)(C(=O)N1CCOCC1)C3 [Example 53, (7R) {4-[(6-Methoxy-1H-indazol-5-yl)amino]-7-methyl-5,6,7,8-tetrahydro[1]benzothieno[2,3-d]pyrimidin-7-yl}(morpholin-4-yl)methanone] | 18.9 nM
COc1cc2[nH]ncc2cc1Nc1ncnc2sc3c(c12)CCC(C)C3 (racemic) [Example 27, (RS)—N-(6-Methoxy-1H-indazol-5-yl)-7-methyl-5,6,7,8-tetrahydro[1]benzothieno[2,3-d]pyrimidin-4-amine] | 66.3 nM
COCCN(C)C(=O)[C@]1(C)CCc2c(sc3ncnc(Nc4cc5cn[nH]c5cc4OC)c23)C1 [Example 57, (7R) N-(2-Methoxyethyl)-4-[(6-methoxy-1H-indazol-5-yl)amino]-N,7-dimethyl-5,6,7,8-tetrahydro[1]benzothieno[2,3-d]pyrimidine-7-carboxamide] | 21.4 nM
COc1cc2[nH]ncc2cc1Nc1ncnc2sc3c(c12)CC[C@](C)(C(=O)N(C)C)C3 [Example 48, (7S) 4-[(6-Methoxy-1H-indazol-5-yl)amino]-N,N,7-trimethyl-5,6,7,8-tetrahydro[1]benzothieno[2,3-d]pyrimidine-7-carboxamide] | 2.4 nM
NCC1CCc2c(sc3ncnc(Nc4ccc5[nH]ncc5c4)c23)C1 (racemic) [Example 7, (RS)-7-(Aminomethyl)-N-(1H-indazol-5-yl)-5,6,7,8-tetrahydro[1]benzothieno[2,3-d]pyrimidin-4-amine] | 155 nM
COCC1(OC)CCc2c(sc3ncnc(Nc4cc5cn[nH]c5cc4F)c23)C1 (racemic) [Example 30, (RS)—N-(6-Fluoro-1H-indazol-5-yl)-7-methoxy-7-(methoxymethyl)-5,6,7,8-tetrahydro[1]benzothieno[2,3-d]pyrimidin-4-amine] | 89.4 nM
CC[C@]1(C(=O)N2CCOCC2)CCc2c(sc3ncnc(Nc4cc5cn[nH]c5cc4OC)c23)C1 [Example 63, (7S) {7-Ethyl-4-[(6-methoxy-1H-indazol-5-yl)amino]-5,6,7,8-tetrahydro[1]benzothieno[2,3-d]pyrimidin-7-yl}(morpholin-4-yl)methanone] | 1.8 nM

Results, then the compound that gave them:

IC50 | Compound
20.6 nM | CC[C@]1(C(=O)N2CCOC[C@H]2C)CCc2c(sc3ncnc(Nc4cc5cn[nH]c5cc4OC)c23)C1 [Example 75, {(7S)-7-Ethyl-4-[(6-methoxy-1H-indazol-5-yl)amino]-5,6,7,8-tetrahydro[1]benzothieno[2,3-d]pyrimidin-7-yl}[(3R)-3-methylmorpholin-4-yl]methanone]
10.1 nM | COCC1(OC)CCc2c(sc3ncnc(Nc4cc5cn[nH]c5cc4OC)c23)C1 (single isomer, unassigned) [Example 42, (7R) or (7S) 7-Methoxy-N-(6-methoxy-1H-indazol-5-yl)-7-(methoxymethyl)-5,6,7,8-tetrahydro[1]benzothieno[2,3-d]pyrimidin-4-amine]
31.7 nM | CC[C@@]1(C(=O)N2CCOCC2)CCc2c(sc3ncnc(Nc4cc5cn[nH]c5cc4OC)c23)C1 [Example 62, (7R) {7-Ethyl-4-[(6-methoxy-1H-indazol-5-yl)amino]-5,6,7,8-tetrahydro[1]benzothieno[2,3-d]pyrimidin-7-yl}(morpholin-4-yl)methanone]
3 nM | CC[C@]1(C(=O)N(C)CCOC)CCc2c(sc3ncnc(Nc4cc5cn[nH]c5cc4OC)c23)C1 [Example 65, (7S) 7-Ethyl-N-(2-methoxyethyl)-4-[(6-methoxy-1H-indazol-5-yl)amino]-N-methyl-5,6,7,8-tetrahydro[1]benzothieno[2,3-d]pyrimidine-7-carboxamide]

Source: patent publication US20160159816A1, “SUBSTITUTED THIENOPYRIMIDINES AND PHARMACEUTICAL USE THEREOF” (BAYER PHARMA AKTIENGESELLSCHAFT, priority 2013, published 2016)
